Results from EP2698385A1, “Detection of synthetic cannabinoids” (priority 2012, dated 2014).
Structures can show the parent of a compound that is named as a salt. Where two headings read alike, the source gives them in different places.

Tests used:
Assay type in all cases: binding, sheep
[1] = system: Antibody to Immunogen I; conditions: Cross-reactants at 100 ng/ml, Antibody to Immunogen I
Procedure: (§1) An aqueous solution of each immunogen was formulated with Freund's Complete Adjuvant (FCA) to form an emulsion consisting of 2mg/ml* immunogen in 50% (v/v) FCA. Three sheep were immunised with this emulsion (1° immunisation), 0.25ml being intramuscularly injected at each of four sites in the flank of each animal. Subsequent immunizations (boosts) contained 1mg/ml* immunogen. All boosts were emulsified in 50% (v/v) Freund's Incomplete Adjuvant (FIA) and were administered in the same manner as the 1° immunisation, at monthly intervals. Blood sampling took place 7 to 14 days after each boost. *The general procedure for immunogen administration is outlined above, however, it was necessary to deviate from this protocol in some cases, due to reduced immunogen concentrations (Immunogens II, IV, VII and VIII) and/or amount available (Immunogen VIII). Any deviations from the protocol described are outlined in Table 1A below and highlighted in bold. Table 1A: Amount and volume of immunogens administered for primary and subsequent boosts
(§2) The wells of an enhanced binding 96 well polystyrene microtiter plate were coated with IgG fraction of antiserum raised to Immunogen I or II, diluted in 10mM Tris, pH8.5 (125µl/well). The appropriate antibody coating dilution was determined using standard ELISA checkerboard techniques. The plate was incubated overnight at 4°C, washed 4 times over 10 minutes with Tris buffered saline containing Tween 20 (TBST) and tapped dry. Standard solutions (JWH-018 for Immunogens I and II) were applied at 0, 0.625, 1.25, 2.5, 5, 10, 20 and 40ng/ml and 50µl of each was added to the appropriate wells. 75µl of conjugate (appropriate hapten-HRP) diluted in Tris buffer (pH 7.2) containing EDTA, D-mannitol, sucrose, thimerosal and BSA, was added to each of the wells. The appropriate dilution of conjugate was also determined using standard ELISA checkerboard techniques. The plate was incubated at 25°C for 1 hour. Excess unbound conjugate was removed by washing 6 times over a 10 minute period with TBST. 125µl of tetramethylbenzidine (TMB) substrate solution was added to each well of the plate that was then incubated for 20 minutes in the dark at room temperature. The reaction was terminated by addition of 125µl 0.2M H2SO4 to each well. The absorbance was then measured at 450nm using a microtiter plate reader. The data are inputted to a computer program called 'KC Junior'. It is a 4 parameter fit curve and allow the calculatation of concentrations between the standard runs. This program is used to calculate the IC50s by dividing the 0ng/ml OD value by 2 and obtaining the concentration value from the curve for this OD.
In a similar manner to that described above, the wells of a 96-well microtiter plate were coated with the IgG fraction of the antiserum raised to Immunogens I or II. Standard solutions (JWH-018 for Immunogen I and II) were applied at 0, 0.625, 1.25, 2.5, 5, 10, 20 and 40ng/ml and conjugate was employed as detection reagent.
(§3) The data set our in Tables 3 and 4 are generated using antibodies raised against the indicated Immunogens in a competitive binding assay with the indicated tracers, using the indicated standards: Table 2
(§4) A450 = absorbance at 450nm B = absorbance at 450nm at xng/ml standard concentration B0 = absorbance at 450nm at 0ng/ml standard concentration IC50 = standard concentration which produces 50% B/B0
(§5) In order to determine the specificity of the competitive ELISAs, standard solutions of a range of structurally similar synthetic cannabinoids and their metabolites were prepared in TBST. Using the calibration curves generated and employing a single level of cross reactants, these were used to determine the cross-reactivity of each immunoassay with these substances. […]

[2] = system: Antibody to Immunogen IV
Procedure: as §1, §2
(§6) In a similar manner to that described above, the wells of a 96-well microtiter plate were coated with the IgG fraction of the antiserum raised to Immunogens IV, VII or VIII. Standard solutions (JWH-018 for Immunogens IV and VIII, JWH-015 for Immunogen VII) were prepared in TBST at 0, 1.25, 2.5, 5, 10, 20, 40 and 80ng/ml and conjugate was employed as detection reagent.
as §3, §4, §5

[3] = system: Antibody to Immunogen VIII
Procedure: as §1, §2, §6, §3, §4, §5

[4] = system: Antibody to Immunogen VII
Procedure: as §1, §2, §6, §3, §4, §5

[5] = Cross-reactants at 100 ng/ml, Antibody to Immunogen IV
[6] = Cross-reactants at 100 ng/ml, Antibody to Immunogen VIII
[7] = Cross-reactants at 100 ng/ml, Antibody to Immunogen VII

Compound | %B/B0 [1] [%] | %B/B0 [2, 5] [%] | %B/B0 [3, 6] [%] | %B/B0 [4, 7] [%] | %B/B0 ([1]; listed as YWH-081 7-methoxynaphthyl isomer (JWH-164)) [%] | %B/B0 ([2]; Cross-reactants at 100 ng/ml, Antibody to Immunogen IV, listed as YWH-081 7-methoxynaphthyl isomer (JWH-164)) [%] | %B/B0 ([3]; Cross-reactants at 100 ng/ml, Antibody to Immunogen VIII, listed as YWH-081 7-methoxynaphthyl isomer (JWH-164)) [%] | %B/B0 ([4]; Cross-reactants at 100 ng/ml, Antibody to Immunogen VII, listed as YWH-081 7-methoxynaphthyl isomer (JWH-164)) [%] | %B/B0 [2] [%] | %B/B0 [3] [%] | %B/B0 [4] [%]
(-)-CP 55,940 | 98.27 | 93.02 | 97.58 | 101.15 |  |  |  |  |  |  | 
COc1ccccc1CC(=O)c1cn(CCCCCO)c2ccccc12 [JWH 250 N-(5-hydroxypentyl) metabolite] | 75.47 | 76.22 | 42.79 | 96.13 |  |  |  |  |  |  | 
CCCCCCn1cc(C(=O)c2cccc3ccccc23)cc1-c1ccccc1 [JWH-147] | 83.85 | 97.00 | 92.32 | 99.32 |  |  |  |  |  |  | 
CCCCCn1cc(C(=O)c2ccc(CC)c3ccccc23)c2ccccc21 [JWH-210] | 91.18 | 5.53 | 16.87 | 96.62 |  |  |  |  |  |  | 
CCCCn1c(O)c(C(=O)c2cccc3ccccc23)c2ccccc21 [JWH-073 2-hydroxyindole metabolite] | 89.62 | 89.63 | 93.42 | 92.65 |  |  |  |  |  |  | 
COc1ccc(C(=O)c2cn(CCCCCO)c3ccccc23)cc1 [RCS-4 N-(5-hydroxypentyl) metabolite] | 59.51 | 61.03 | 19.13 | 94.55 |  |  |  |  |  |  | 
CCCCCn1cc(C(=O)Cc2cccc(OC)c2)c2ccccc21 [JWH-302] | 84.66 | 45.67 | 7.97 | 104.92 |  |  |  |  |  |  | 
COc1ccc(C(=O)c2c(C)n(CCN3CCOCC3)c3ccccc23)cc1 [WIN-48,098 (other name Pravadoline), Pravadoline] | 90.05 | 91.64 | 97.90 | 92.41 |  |  |  |  |  |  | 
CCCCn1cc(C(=O)c2ccc(C)c3ccccc23)c2ccccc21 [JWH-073 4-methylnaphthyl analogue] | 45.54 | 7.01 | 19.75 | 78.36 |  |  |  |  |  |  | 
O=C(c1ccc2ccccc2c1)c1cn(CCN2CCOCC2)c2ccccc12 [JWH-200 2'-naphthyl isomer] | 28.57 | 92.29 | 96.12 | 94.65 |  |  |  |  |  |  | 
CCCC(C)(C)c1ccc2c(c1)OC(C)(C)[C@@H]1CC=C(C)C[C@@H]21 [JWH-133] | 100.56 | 98.18 | 100.00 | 101.84 |  |  |  |  |  |  | 
COc1ccc(C(=O)c2cn(CCCC(C)O)c3ccccc23)cc1 (stereo not drawn) [RCS-4 N-(4-hydroxypentyl) metabolite] | 65.71 | 59.16 | 8.89 | 95.72 |  |  |  |  |  |  | 
(+)-CP 55,940 | 103.25 | 91.38 | 95.12 | 97.15 |  |  |  |  |  |  | 
CCCCCn1cc(C(=O)c2ccc3ccccc3c2)c2ccccc21 [JWH 018 2'-naphthyl isomer] | 75.90 | 28.13 | 14.94 | 94.98 |  |  |  |  |  |  | 
CCCCn1cc(C(=O)c2ccc(OC)cc2)c2ccccc21 [RCS-4-C4 homologue] | 76.27 | 27.17 | 9.54 | 100.20 |  |  |  |  |  |  | 
CCCCCn1cc(C(=O)c2ccc(OC)c3ccccc23)c2ccccc21 [JWH-081] | 62.13 | 3.78 | 15.88 | 86.72 |  |  |  |  |  |  | 

Compound | %B/B0 [1] [%] | %B/B0 [2, 5] [%] | %B/B0 [3, 6] [%] | %B/B0 [4, 7] [%] | %B/B0 ([1]; listed as YWH-081 7-methoxynaphthyl isomer (JWH-164)) [%] | %B/B0 ([2]; Cross-reactants at 100 ng/ml, Antibody to Immunogen IV, listed as YWH-081 7-methoxynaphthyl isomer (JWH-164)) [%] | %B/B0 ([3]; Cross-reactants at 100 ng/ml, Antibody to Immunogen VIII, listed as YWH-081 7-methoxynaphthyl isomer (JWH-164)) [%] | %B/B0 ([4]; Cross-reactants at 100 ng/ml, Antibody to Immunogen VII, listed as YWH-081 7-methoxynaphthyl isomer (JWH-164)) [%] | %B/B0 [2] [%] | %B/B0 [3] [%] | %B/B0 [4] [%]
CCCCCCC(C)(C)C1=CC(=O)C([C@@H]2CCC[C@H](O)C2)=CC1=O [CP-47,497-para-quinone analogue] | 100.26 | 97.33 | 88.11 | 93.29 |  |  |  |  |  |  | 
CCCCCn1cc(C(=O)c2cccc3ccc(OC)cc23)c2ccccc21 [JWH-164 (JWH-081 7-methoxynaphthyl isomer), JWH-081 7-methoxynaphthyl isomer] | 91.86 | 36.14 | 57.93 | 96.13 | 88.26 | 39.20 | 59.51 | 97.60 |  |  | 
CCCCCn1cc(C(=O)Cc2ccccc2Cl)c2ccccc21 [JWH-203] | 72.55 | 52.15 | 9.19 | 99.08 |  |  |  |  |  |  | 
CCCCCC(C)n1c(C)c(C(=O)c2cccc3ccccc23)c2ccccc21 (stereo not drawn) [JWH-011] | 62.13 | 99.19 | 97.49 | 57.43 |  |  |  |  |  |  | 
COc1cccc(CC(=O)c2cn(CCC3CCCCC3)c3ccccc23)c1 [RCS-8 3-methoxy isomer] | 93.24 | 89.43 | 83.62 | 93.73 |  |  |  |  |  |  | 
COc1ccccc1CC(=O)c1cn(CCC2CCCCC2)c2ccccc12 [RCS-8 (SR-18), RCS-8] | 82.65 | 85.50 | 88.79 | 94.57 |  |  |  |  |  |  | 
CCCCCn1cc(C(=O)c2cccc3ccc(CC)cc23)c2ccccc21 [JWH-210 7-ethylnaphthyl isomer or JWH-234, JWH-210 7-ethylnaphthyl isomer] | 73.11 | 27.07 | 50.90 | 100.55 |  |  |  |  |  |  | 
CS(=O)(=O)O.Cc1c(C(=O)c2cccc3ccccc23)c2cccc3c2n1[C@@H](CN1CCOCC1)CO3 [Win 55,212-3 mesylate, Win 55,212-3] | 34.00 | 94.57 | 101.30 | 32.31 |  |  |  |  |  |  | 
NCCc1c[nH]c2ccc(O)cc12 [Serotonin HCl] |  | 95.40 | 100.36 | 99.83 |  |  |  |  |  |  | 
COc1ccc(C(=O)c2cn(CCCCCO)c3ccccc23)c2ccccc12 [JWH-081 N-(5-hydroxypentyl) metabolite] | 61.86 | 26.31 | 47.16 | 89.31 |  |  |  |  |  |  | 
(+-)-CP 55,940 [((+-)-CP 55,940)] | 100.61 | 94.60 | 100.25 | 100.25 |  |  |  |  |  |  | 
CCCCCCC(C)(C)c1cc(O)c2c(c1)OC(C)(C)[C@@H]1CC=C(CO)C[C@@H]21 [HU-210] | 102.57 | 92.53 | 93.42 | 100.39 |  |  |  |  |  |  | 
CCCCCCC(C)(C)c1cc(O)c2c(c1)OC(C)(C)[C@H]1CC=C(CO)C[C@H]21 [HU-211 (Dexanabinol), Dexanabinol] | 103.36 | 93.37 | 92.70 | 96.78 |  |  |  |  |  |  | 
CCCCCn1ccc(C(=O)c2cccc3ccccc23)c1 [JWH-030] | 61.17 | 93.17 | 94.25 | 89.66 |  |  |  |  |  |  | 
(-)-11-nor-9-Carboxy-delta9-THC |  |  |  |  |  |  |  |  | 93.08 | 103.36 | 98.72
